Broadly, the IC50 is the concentration that inhibits the measured activity by half.

The text below walks through data of article PMC8540265, “Activity of New Synthetic (2-Chloroethylthio)-1,4-naphthoquinones in Prostate Cancer Cells” (Pharmaceuticals, 2021).

One test deals with PC-3 cells. In kind it is cell-based, human.
For test [1], the system named is 22Rv1 cells.
For test [2], the system named is 22Rv1 cells. Description: MTT cytotoxicity test, 22Rv1 cells. In kind it is cell-based, human. As for the experimental part: (§1) A total of 6000 cells/well were seeded in 96-well plates, incubated overnight, and treated with the drugs in 100 μL/well of the corresponding fresh culture media for 48 h, as previously described. For combinational assays, the cells were pre-treated with the corresponding inhibitor for the indicated time and then co-treated with the tested compounds for 48 h. Then, 10 μL/well of MTT ((3-(4,5-dimethylthiazol-2-yl)-2,5-diphenyltetrazolium bromide) solution was added and the cell viability was measured as previously reported.
(Formazan colour is commonly taken as a measure of viable cells.)

In another test the test system is PNT2 cells. Description: MTT cytotoxicity test, PNT2 cells. The test is classed as cell-based, human. Here is the method:
as §1

Test [3] deals with 22Rv1 cells. The test is classed as cell-based, human.
Where [4] appears, read: Homo sapiens, PNT2, 48 h, MTT, non-cancer prostate cells.

Like-named read-outs stand apart in the source and are kept apart here.

As for `CC(=O)O[C@@H]1O[C@H](CSC2=CC(=O)c3c(O)c(C)c(C)c(O)c3C2=O)[C@@H](OC(C)=O)[C@H](OC(C)=O)[C@H]1OC(C)=O` [SAB-1], in the test on PC-3 cells, the “increase in activity in PC-3 cells on introduction of the 2-chloroethylthio group” value is 5 fold. With “2-[2-(3-chlorophenyl)hydrazinylyidene]propanedinitrile [CCCP]”, the “effect on mitochondrial membrane potential (ΔΨm)” value with 22Rv1 cells [1] is “provoked mitochondrial membrane depolarization”.

For `COc1cc(O)c2c(c1O)C(=O)C(O)=C(CSCCCl)C2=O` [Compound 38, 2-((2-Chloroethylthio)methyl)-3,5,8-trihydroxy-6-methoxy-1,4-naphthoquinone], the IC50 in the test with 22Rv1 cells [2] and in the test on PNT2 cells was over 100 µM throughout.

With `COc1ccc(C[C@H]2NC[C@H](O)[C@H]2OC(C)=O)cc1` [Aniso, anisomycin], the “effect of pre-treatment with pan-caspase inhibitor zVAD on induced apoptosis” value in the test on 22Rv1 cells [3] is recorded as “Comparable effects”.

As to `O=C1C(O)=C(CSCCCl)C(=O)c2c(O)c(Cl)c(Cl)c(O)c21` [Compound 37, 6,7-Dichloro-2-((2-chloroethylthio)methyl)-3,5,8-trihydroxy-1,4-naphthoquinone], in the test on 22Rv1 cells [2], the IC50 is 48.6 ± 12.2 µM and the “Selectivity Index [IC50(PNT2)/IC50(22Rv1)]” value is 0.58. Moreover, the IC50 with PNT2 cells is 28.2 ± 1.04 µM. In the case of `COc1ccc2c(c1O)C(=O)C(O)=C(C)C2=O` [Compound 11, ancistroquinone B], the IC50 with 22Rv1 cells [2] (Homo sapiens, 22Rv1, 48 h, MTT) was over 100 µM; in the test with PNT2 cells (setting [4]), over 100 µM. Consider `CC1=C(O)C(=O)c2c(ccc(O)c2O)C1=O` [Compound 12, dioncoquinone B], for which the IC50 in the test on 22Rv1 cells [2] (Homo sapiens, 22Rv1, 48 h, MTT) is 89.5 ± 24.9 µM; in the test with PNT2 cells (setting [4]), over 100 µM. In the case of `COc1cc2c(c(OC)c1OC)C(=O)C(CSCCCl)=C(O)C2=O` [Compound 34, 3-((2-Chloroethylthio)methyl)-2-hydroxy-5,6,7-trimethoxy-1,4-naphthoquinone], the concentration for half-maximal inhibition (IC50) in the test with 22Rv1 cells [2] and in the test on PNT2 cells was over 100 µM each time.
